Test results reported in patent US5208145A, “Assay for the presence, in cultured cells, of functional ligand-gated channels, and substances which enhance intracellular lithium accumulation by cultured cells via such channels” (The Salk Institute for Biological Studies, priority 1991, dated 1993).

Test system: PC12 cells
Conditions: sodium formulated buffer plus 10 μM nicotine, 3H-thymidine incorporation, FIG. 1
Protocol: To subculture, these cells were dislodged from the culture dish by pipetting medium across the culture surface, disassociated by vigorous repeat pipetting, and then distributed to new culture dishes containing fresh media. All cells were maintained at 37° C. in a humidified atmosphere supplemented to 5 percent with CO2.
PC12 cells were distributed to 96 well Costar culture dishes (10^4 cells/well) and the cells were allowed to recover for 24 to 36 hours prior to use. Cells were never allowed to reach confluency. To conduct a lithium-flux experiment, the culture medium was removed and gently replaced with flux-buffer composed of 1.8 mM CaCl2, 25 mM glucose, 10 mM HEPES (pH 7.4), and 115 mM in either sodium chloride or lithium chloride. Each buffer was filter sterilized and supplemented with agonist, antagonist, or both, as described for the experiment being conducted. […] For PC12 cells, culture was then continued as usual for 6 hours before quantitating ^3 H-thymidine incorporation. […]
To determine the incorporation of ^3 H-thymidine into fluxed cells, dishes were frozen at -70°, thawed, and the DNA from each well was collected on glass filters using a Cambridge PhD cell harvester. […] Glass filters were dried, resuspended in Ecolume (ICN) scintillation cocktail, and counted in an LKB Wallace 2010 scintillation counter at 34 percent efficiency.

CN1CCCC1c1cccnc1 (stereo not shown) [nicotine]
effect of the presence of nicotine on cell cycle time of PC12 cells: does not alter the cell cycle time of PC12 cells
